Measured values published in PubChem BioAssay (NCI).
Values joined by “and” are separate entries in the source; they are usually repeats but may differ in a detail not shown here. Equal entries are not always repeated.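 Assay format: 96-well plates, 48-hour exposure. Abbreviation: GI50, concentration required for 50% inhibition of growth. Definition used: TGI = concentration required for complete inhibition of growth.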

How the values were obtained:
Assay in all cases: NCI-60 cell line screen, 48 h
[1] = system: A498 renal
[2] = system: A549 NSCLC
[3] = system: CCRF-CEM leukemia
[4] = system: COLO 205 colon
[5] = system: M14 melanoma
[6] = system: MOLT-4 leukemia
[7] = system: NCI-H226 lung
[8] = system: NCI-H460 lung
[9] = system: OVCAR-4 ovarian
[10] = system: SF-268 CNS

Structure (SMILES)	TGI [1]	TGI [2]	TGI [3]	TGI [4]	TGI [5]	TGI [6] [µM]	TGI [7]	TGI [8]	TGI [9]	TGI [10]	GI50 [1] [µM]	GI50 [2] [µM]	GI50 [3] [µM]	GI50 [4] [µM]	GI50 [5] [µM]	GI50 [6] [µM]	GI50 [7] [µM]	GI50 [8] [µM]	GI50 [9] [µM]	GI50 [10] [µM]
COc1ccc(NC(=O)C2=CC(=O)c3ccc(O)cc3C2=O)c(OC)c1	> 100 µM	> 100 µM	> 100 µM	> 100 µM	> 100 µM	> 100	> 100 µM	> 100 µM	> 100 µM	> 100 µM										
O=C(O)c1c[nH]c2c(ccc3[nH]cc(C(=O)O)c(=O)c32)c1=O	> 100 µM	> 100 µM		> 100 µM	> 100 µM	> 100	> 100 µM	> 100 µM	> 100 µM	> 100 µM										
CCN(CC)CC(O)c1cc(-c2ccc(Cl)cc2)nc2cc(Cl)ccc12 (stereo not drawn)	10.1 µM	3.63 µM	5.56 µM	3.34 µM	3.44 µM	3.48	7.15 µM	3.17 µM	10.6 µM	8.06 µM	2.95	1.9	2.52	1.65	1.83	1.68	2.21	1.64	3.3	2.69
COc1cccc(/C=C2\CCc3ccccc3C2=O)c1	25.1 µM	60.1 µM	16.5 µM	34.1 µM	39.6 µM	25.2	43.1 µM	35 µM	54.5 µM	29.1 µM	12.1	20.1	3.04	19.9	17	3.38	17.8	17	13.7	14.8
Clc1ccc(Nc2ncnc3c2sc2ncccc23)c(Cl)c1	> 22.1 µM	> 100 µM	> 100 µM	> 25.8 µM	0.038 µM	> 100	> 100 µM	> 100 µM	> 100 µM	> 100 µM	0.0317	< 0.01	0.0218	0.0573	< 0.01	0.0382	0.42	< 0.01	> 100	0.0246
CC(C)=Cc1cc(C(=O)NCCNC(=O)c2cc(C=C(C)C)nc(NC#N)n2)nc(NC#N)n1	> 100 µM	> 100 µM	> 100 µM	> 100 µM	> 100 µM	> 100	> 100 µM	> 100 µM	> 100 µM	> 100 µM										
COc1ccc(Nc2ncccc2C(=O)NCc2cn(Cc3cccc(Oc4ccccc4)c3)nn2)c(OC)c1	13 µM	> 100 µM	> 100 µM	5.7 µM	> 100 µM	> 100	> 26.7 µM	> 100 µM	> 100 µM	> 100 µM	1.33	3.7	2.08	2.11	1.37	4.02	2.72	3.19	5.27	3.34
CCC1OC(=O)CC(O)C(C)C(OC2OC(C)CC(N(C)C)C2O)C(CC=O)CC(C)C(=O)/C=C/C2(C)OC2C1C (stereo not drawn)	71.8 µM	> 100 µM	26.2 µM	32.2 µM	> 100 µM	43.4	49.6 µM	> 100 µM		76.3 µM										
COc1ccc(/C=C/C(=O)c2ccccc2)cc1OC	38.6 µM and 32.2 µM	47.7 µM and > 100 µM		31.6 µM and 34.8 µM	30 µM and 29.6 µM	> 100	53.6 µM and 32.3 µM	32.5 µM and 37.5 µM	36.6 µM and 33.3 µM	36.7 µM and 64.9 µM		30.5	3.72			17.9	16.4	14.3		19.7
C/C(CC(=O)Nc1ccc([N+](=O)[O-])cc1)=N\Nc1ccc([N+](=O)[O-])cc1[N+](=O)[O-]	> 100 µM	> 100 µM	> 100 µM	> 100 µM	> 100 µM	> 100	> 100 µM	> 100 µM		> 100 µM										
Cc1cc2nc3c4cc([N+](=O)[O-])ccc4n(CCN(C)C)c3nc2cc1C	1.74 µM	3.67 µM	21.3 µM	2.48 µM	1.99 µM	8.68	5.81 µM	1.75 µM	6.6 µM	6.92 µM	0.452	0.397	0.642	0.363	0.467	0.373	0.966	0.352	0.527	0.787
COc1ccc2c(c1)C(=O)c1c-2c(OCCN2CCCCC2)nc2ccc(OC)cc12	4.73 µM	2.16 µM	2.66 µM	11.1 µM	6.87 µM	1.81	2.82 µM	1.1 µM	10.7 µM	9.46 µM	1.04	0.674	0.197	0.723	0.904	0.305	0.705	0.286	1.36	0.461
COc1cc(/C=C2\CC3C4CCC5=CC(=O)CC[C@]5(C)C4CC[C@]3(C)C2=O)ccc1OCCN1CCCCC1 (stereo partly drawn)	12.1 µM	41.1 µM		35.2 µM	3.46 µM	75.2	21.1 µM	14.1 µM	92.2 µM	16.4 µM	1.9	11		5.34	1.87	2.73	5.24	3.43	8.35	4.72
CCCCCCn1c2c(c3c(O)cccc31)C(=O)c1ccccc1-2	33.2 µM	34.5 µM	50 µM	> 100 µM	30.2 µM	> 100	39.7 µM	35.8 µM	53 µM	40.5 µM	18.9	16.4	23.2	38.8	15.7	28.7	21.6	17.6	25	20.3
c1cnc2nc3n(c2c1)CSC3	> 100 µM	> 100 µM	> 100 µM	> 100 µM	> 100 µM	> 100	> 100 µM	> 100 µM	> 100 µM	> 100 µM										
Cn1c(=O)c(-c2c(Cl)cccc2Cl)cc2cnc(Nc3ccc(I)cc3)nc21	< 0.01 µM	19.4 µM	> 100 µM	0.324 µM	0.346 µM	0.787		10.4 µM	7.49 µM		< 0.01	3.72	0.0224	0.0458		0.0174	0.182	< 0.01	0.213	
Nc1nc(Cl)nc2c1ncn2C1OC(CO)C(O)C1O (stereo not drawn)	> 100 µM	> 100 µM	> 100 µM	> 100 µM	4.2 µM	> 41.2	> 100 µM	> 100 µM	> 100 µM	> 100 µM	> 64.4	4.41	0.264	5.76	0.999	0.493	> 100	12.6	> 100	10.7

Structure (SMILES)	TGI [1]	TGI [2]	TGI [3]	TGI [4]	TGI [5]	TGI [6] [µM]	TGI [7]	TGI [8]	TGI [9]	TGI [10]	GI50 [1] [µM]	GI50 [2] [µM]	GI50 [3] [µM]	GI50 [4] [µM]	GI50 [5] [µM]	GI50 [6] [µM]	GI50 [7] [µM]	GI50 [8] [µM]	GI50 [9] [µM]	GI50 [10] [µM]
NC(CSC1(c2ccc(Cl)cc2)c2ccccc2-c2ccccc21)C(=O)O (stereo not drawn)	35 µM	> 100 µM	> 100 µM	28.9 µM	68.4 µM	71.5	67.5 µM	39.5 µM	> 100 µM	50.2 µM										
O=C1CCCCCCCCCCOC(=O)CCCCCCCCCCO1	> 100 µM	> 100 µM	> 100 µM	> 100 µM	> 100 µM		> 100 µM	> 100 µM	> 100 µM	> 100 µM										
CC(=O)Nc1ccc(Cc2ccc3[nH]c(=O)cc(C)c3c2)cc1	> 100 µM	> 100 µM	> 100 µM	> 100 µM	> 100 µM	> 100	> 100 µM	> 100 µM	> 100 µM	> 100 µM										
C=C(C)C1CCC2(C(=O)O)CCC3(C)C(CCC4C5(C)CCC(O)C(C)(C)C5CCC43C)C12 (stereo not drawn)	20.7 µM	24.1 µM	36.5 µM	16.6 µM	27.7 µM	26.5	40.9 µM	39 µM	14.7 µM	28.7 µM										
COC(=O)c1cc2c(nc1C)-c1ccccc1OS2(=O)=O	> 100 µM	> 100 µM	> 100 µM	> 100 µM	> 100 µM	> 100	> 100 µM	> 100 µM	> 100 µM	> 100 µM										
O=C(NC(Cc1ccccc1)C(=O)CCl)OCc1ccccc1 (stereo not drawn)	23 µM and 27.6 µM	33.9 µM and 36.2 µM	13.8 µM and 11.6 µM	24.1 µM and 24 µM	19.2 µM and 23 µM	25.4	55.5 µM	17.4 µM and 19.8 µM	13.5 µM	16.3 µM and 26.3 µM	10.2	13.9	2.34	10	4.69	3.56	13.4	4.34	2.04	4.36
COC(=O)CC1NC(=O)C1C(C)(OC)OC (stereo not drawn)	> 100 µM	> 100 µM	> 100 µM	> 100 µM	> 100 µM	> 100	> 100 µM	> 100 µM	> 100 µM	> 100 µM										
CNC(=O)c1cc(Oc2ccc3nc(NC(=O)Nc4cc(C(F)(F)F)cc(C(F)(F)F)c4)sc3c2)ccn1	2.46 µM	2.67 µM	5.83 µM	2.32 µM	3.22 µM		3.57 µM	2.85 µM	2.73 µM	2.86 µM	1.02	1.3	1.07	0.822	1.5		1.45	1.23	0.958	1.27
Cc1cc(N(CCC#N)CCC#N)ccc1CC1N=C(c2ccccc2)OC1=O (stereo not drawn)	> 100 µM	> 100 µM	> 100 µM	> 100 µM	> 100 µM	> 100	> 100 µM	> 100 µM	> 100 µM	> 100 µM										
CN(CCCCN)c1ccc2c(=O)[nH][nH]c(=O)c2c1	> 100 µM	> 100 µM	> 100 µM	> 100 µM	> 100 µM	> 100	> 100 µM	> 100 µM	> 100 µM	> 100 µM										
C=C(C)[C@@H]1CC[C@]2(C(=O)N3CCN(C)CC3)CC[C@]3(C)[C@H](CC[C@@H]4[C@@]5(C)CC[C@H](O)C(C)(C)[C@@H]5CC[C@]43C)[C@@H]12	2.9 µM	3.88 µM		4.26 µM	3.76 µM		5 µM	4.04 µM	3.37 µM	4.42 µM	1.5	1.88		1.89	1.89		2.07	2.02	1.77	2.02
C=CCn1c(=O)c(C(=O)NC(=O)OCC)cn(C2CCCCC2)c1=O	> 100 µM	> 100 µM	> 100 µM	> 100 µM	> 100 µM	> 100	> 100 µM	> 100 µM	> 100 µM											
Cc1cc(C)c(C2=NO[C@@H]3C(=O)N(c4ccc(Cc5ccc(N6C(=O)[C@H]7C(c8c(C)cc(C)cc8C)=NO[C@H]7C6=O)cc5)cc4)C(=O)[C@H]23)c(C)c1	> 100 µM	> 100 µM	> 100 µM	> 100 µM	> 100 µM	> 100	> 100 µM		> 100 µM	> 100 µM										
COc1ccc(N2C(=O)C3C=CC(n4[nH]c(=O)n(Cc5ccccc5)c4=O)CC3C2=O)cc1 (stereo not drawn)	> 100 µM	> 100 µM	> 100 µM	> 100 µM	> 100 µM	> 100	> 100 µM	> 100 µM		> 100 µM										
COC(=O)Cc1nn2c(nc1=O)sc1ccc3ccccc3c12	> 100 µM	> 100 µM	> 100 µM	> 100 µM	> 100 µM	> 100	> 100 µM	> 100 µM	> 100 µM											
CC/C(=C(/CC)c1ccc(O)cc1)c1ccc(O)cc1	25.2 µM	20.5 µM		19.7 µM	15.7 µM	66.4	36 µM	15.2 µM	37 µM	20.8 µM	12.4	4.59		6.31	4.57	5.29	14.6	4.05	8.06	5.5
